Data as given in US4118561A, “7-(Substituted)-7H-pyrrolo[3,2-f]quinazoline-1,3-diamines” (priority 1977, dated 1978).

System: Escherichia coli W-102
Experiment: In vivo antibacterial synergism (mouse), Escherichia coli W-102
Parameters: species or system Escherichia coli (infected mice, CD-1)
Conditions: mice, p.o.; for PD50 SM/Cpd. (compound part): 0 hours; for PD50 SM/Cpd. (compound part) / CD50 SM/Cpd. (compound part): 20160 min; for CD50 SM/Cpd. (compound part): 6 hours
Procedure: The test agents are weighed, suspended in 0.5% aqueous carboxymethyl cellulose, homogenized (glass tissue grinder) and diluted according to the design of the experiment. Mice (male, 18±1 g., CD-1 strain) are pre-weighed, pooled, infected at random intraperitoneally with a 0.5 ml. standardized suspension (LD95 ±5%) of the bacterial organism in 5% gastric mucin and treated at random with single doses of the test agents either at the time of infection or six hours after infecting. The treated groups consist of ten mice per dosage level. Deaths are recorded daily for 14 days and the PD50 (mice are treated at time of infection) and CD50 (mice are treated six hours after infecting) values are calculated by the method of Reed and Muench [Amer. J. Hyg., 27, 493 (1938)].

## N#Cc1ccc(Cn2ccc3c4c(N)nc(N)nc4ccc32)cc1 [Example 16, 7-[(4-cyanophenyl)methyl]-7H-pyrrolo[3,2-f]-quinazoline-1,3-diamine]
Escherichia coli, W102, po, 336 h, treated 0 hours after infecting, read-out: PD50 (agent alone)
  ED50: > 800 mg/kg
With SM 3.13 mg. per kg.
  PD50 SM/Cpd. (compound part): 67.8 mg. per kg.
With SM 6.25 mg. per kg.
  PD50 SM/Cpd. (compound part): 53.1 mg. per kg.
With SM 12.5 mg. per kg.
  PD50 SM/Cpd. (compound part): 15.6 mg. per kg.
  CD50 SM/Cpd. (compound part): 50 mg. per kg.
With SM 25.0 mg. per kg.
  PD50 SM/Cpd. (compound part): 15.9 mg. per kg.
With SM 25 mg. per kg.
  CD50 SM/Cpd. (compound part): 89 mg. per kg.
With SM 50 mg. per kg.
  CD50 SM/Cpd. (compound part): 37 mg. per kg.
